Experimental findings from patent publication US7026270B2, “Biocidal compounds and their preparation” (Syngenta Crop Protection, Inc., priority 2002, dated 2006) are described below.

What all share (format): in vivo
Test [1] deals with Stagonospora Nodorum (LEPTNO). Kind of test: Foliar fungicidal test on wheat, 1 day protectant, Stagonospora Nodorum. The following applies: 100 ppm foliar spray on wheat; inoculated one day after chemical application; banded assessment. On the procedure: (§1) This Example illustrates the fungicidal properties of the compounds of formula (I). The compounds were tested against a variety of foliar fungal diseases of plants. The technique employed was as follows. Plants were grown on an artificial, cellulose based growing medium. The test compounds were individually diluted in reverse osmosis water to a final concentration of 100 ppm in water (that is, 1 mg of compound in a final volume of 10 ml) immediately before use. TWEEN 20 (at a final concentration of 0.05% by volume) was added with the water to improve retention of the spray deposit. TWEEN is a registered trade mark. The compounds were applied to the foliage of the test plants by spraying the plant to maximum droplet retention. […] After chemical application and inoculation, the plants were incubated under high humidity conditions (except those inoculated with Blumeria graminis f.sp. tritici) and then put into an appropriate environment to allow infection to proceed until the disease was ready for assessment. […] However, each individual disease was assessed after the same time period for all compounds. […] The disease level present (the percentage leaf area covered by actively sporulating disease) was assessed visually. For each treatment, the assessed values for all its replicates were meaned to provide mean disease values. Untreated control plants were assessed in the same manner. […]

The test system of test [2] is Blumeria graminis f.sp. tritici (ERYSGT). Put plainly: Foliar fungicidal test on wheat, 6 hour protectant, Blumeria graminis f.sp. tritici. The following applies: 100 ppm foliar spray on wheat; inoculated 6 hours after chemical application; banded assessment. On the procedure:
as §1

For test [3], the system named is Puccinia triticina (PUCCRT). Kind of test: Foliar fungicidal test on wheat, 1 day protectant, Puccinia triticina. The following applies: 100 ppm foliar spray on wheat; inoculated one day after chemical application; banded assessment. As for the experimental part: as §1

In the case of `CO[C@@H]1CO[C@H]2[C@@H](O)[C@H](c3c[nH]c(=O)[nH]c3=O)O[C@@H]2[C@@H]1NC(N)=O` (stereo in doubt) [(II), Malayamycin A], in test [1], the “PRCO (Percentage Disease Reduction from Control) LEPTNO 1 day Protectant” value is on record as 100. In addition, in test [2], the “PRCO (Percentage Disease Reduction from Control) ERYSGT 6 hour Protectant” value came to 100. Further, the “PRCO (Percentage Disease Reduction from Control) PUCCRT 1 day Protectant” value in test [3] worked out at 100.

`NC(=O)N[C@H]1[C@H]2O[C@@H](c3c[nH]c(=O)[nH]c3=O)[C@H](O)[C@@H]2OC[C@H]1O` (stereo in doubt) [(III), Desmethylmalayamycin A]: in test [1], the “PRCO (Percentage Disease Reduction from Control) LEPTNO 1 day Protectant” value is 99. In addition, the “PRCO (Percentage Disease Reduction from Control) ERYSGT 6 hour Protectant” value in test [2] worked out at 0. In addition, the “PRCO (Percentage Disease Reduction from Control) PUCCRT 1 day Protectant” value in test [3] turned out to be 100.
